Converted amounts (≈) assume the structure as drawn.
Columns and labels:
parental U251MG cells = test: Cell viability assay, 5-FC dose response; type: cell-based; details: Homo sapiens, U-251, 120 h, 5 days
Protocol: (§1) Note the shift to the left of the IC50 curve for the hyCD stable-transfected U251MG cells in the presence of 5-FC. IC50 values for both cultures are indicated.
(§2) U251MG and U87MG cell lines were grown to 95% monolayer confluence. The cells were trypsinized and harvested with 0.25% trypsin/EDTA, plated in 6-well tissue culture plates, and allowed to adhere overnight at 37° C. in 5% CO2 humidified incubators. 5-FU or 5-FC in serial 0.5-log concentrations in 100 μl aliquots was added directly to the cells to achieve final concentrations, as previously described (Miller, 2002). Cells were incubated at 37° C. for 5 days and cell viability by cellular respiration was determined using 3-(4,5-methylthiazole-2-yl)-5-(3-carboxymethoxy-phenyl)-2-(4-sulfonyl)-2H-tetrazolium) (Promega, Madison, Wis.) according to the manufacturer's protocol. The cell survival fraction was measured at each drug concentration as the ratio of absorbance at 490 nm relative to untreated cells. This calculation was normalized for background absorbance of the culture medium alone. The cell survival fraction was plotted against the logarithm of the drug concentration, and IC50 values were calculated using a sigmoidal dose-response curve with variable slope in GraphPad Prism 3.01.

[1] = tested on: hyCD stable-transfected U251MG cells; test: Cell viability assay, 5-FC dose response; type: cell-based, human
Protocol: as §1, §2

U-87 MG xenograft = test: Survival with antiangiogenic compounds, glioma xenograft mouse model; type: in vivo, athymic mice; details: P>0.5 logrank
Protocol: Testing the effect of antiangiogenic compounds on the survival of human glioma xenograft mouse model. Comparative survival analysis of the anticancer effect of different antiangiogenic treatments have been performed using the U-87 MG xenograft mouse model). PTK787/ZK 222584 was evaluated as a VEGFR inhibitor (Thomas et al., 2003); and imatinib/Glivec as a potent PDGFRβ inhibitor (Manley et al., 2002). Briefly, human glioma cells (5×10^5 U-87 MG) were engrafted into the caudate nucleus of athymic mice using a guide-screw system as previously described (Fueyo et al., 2003). […] Neither group treatment had long-term survivors.

[2] = Organ uptake after injection of W/Re-188 generator eluant; type: in vivo; details: 100 μCi
Protocol: Urine and later fecal accumulation (at 24 hours) is also observed.
Whole-mount sections of animals were prepared after tail vein injection of ^188Re elutant produced by a Rhenium generator at 100 μCi, which provides additional conformation of the anatomic localization of the images provided by gamma camera assessment. […] The bladder where the isotope is being eliminated is also visualized. Individual organs can be harvested and isotope counts can be determined per gram of tissue as a quantitative measure of radionuclide uptake.

U251 cells = test: Cell mixing experiments, Tc99O4 uptake after Δ24-NIS infection; type: cell-based, human; details: U251 infected with Δ24-NIS
Protocol: Cells incubated with virus for 1.5 h then washed extensively and mixed at different percentages with uninfected U251 cells. Uptake assays were then performed at 48 h and values are given as fold increase (ratios) of Tc^99O4 within the cells compared to control cells.
U251MG and U87MG glioma cell lines are transiently transfected, then incubated with ^99mTcO4. These in vitro techniques are modifications of an assay developed by Petrich et al. (2002). Briefly, cells are plated into 24-well plates and allowed to achieve 90% confluence. Various titers of Δ24-NIS are added, incubating and infecting the cells for 2 h. The cells are then washed, and the assay performed at 24, 48, and 72 h. The cells are pre-incubated at 37° C. for 30 min in 1 ml of HEPES-buffered Hanks balanced salt solution (bHBSS). […] Cellular radioactivity is released with 1 ml ice-cold 100% ethanol for 20 min, and counted in a cross-calibrated gamma counter. Protein content of the 6 wells per cell line are determined using a BCA assay kit.
Because of the concern that an oncolytic virus could destroy the cells expressing the NIS transgene and blunt the ability to concentrate-adequate amounts of radionuclide, a study were performed to determine the percentage of cells required to obtain significant concentrations of isotope. […] The result is shown in FIG. 11 and is expressed as fold increase (ratios) over control cells.

EGFRvIII = target: T1, EGFRvIII (Homo sapiens, UniProt P00533, DELINS30-297G); test: Membrane fluorescence staining with anti-EGFRvIII peptide-FITC, flow cytometry; type: binding; details: 1 μM, 30 min
T1 construct: expressed in transfected cells; host or cells: U-87 MG stably transfected with mutant EGFR (U87MG.ΔEGFR; Nishikawa et al., 1994)
Protocol: Briefly, the inventors performed membrane fluorescence staining of single-cell suspensions after incubating U-87 MG, U87.wtEGFR, and U-87.ΔEGFRvIII (Nishikawa et al., 1994) with the anti-EGFRvIII peptide (PEPCH1)-FITC (1 μM) (Campa et al., 2000) for 30 min. The cells were then washed twice with PBS and then analyzed for fluorescence with an EPICS XL-MCL flow cytometer (Beckman-Coulter Inc., Miami, Fla.) using a 488 nm argon laser for excitation. Fluorescence was detected with a 520 nm band-pass filter, and all cytometric data was analyzed with the System II software (Beckman-Coulter Inc.). Data are shown as the percentages of FICT-positive cells (empty graph) compared to mock-treated cells (solid graphs) from a representative experiment.

HU-VEC-C = test: Tube formation (vascular-like structures) assay; type: cell-based, human; details: 400-800 ng/ML, 18 h
Protocol: This assay will be performed using an in vitro angiogenesis kit (Chemicon, Temecula, Calif.) according to the manufacturer's instructions. Wells in a 96-well plate will be coated with ECMatrix solution, and 5×10^3 cells will be plated in triplicate wells in a volume of 50 μl of EGM (Clonetics Corp.) containing 2% FBS. The cells will be incubated for 18 h at 37° C., and tube formation will be evaluated by phase-contract microscopy. To determine the viability of cells in these assays, cells will be stained with Hoechst 33342 (5 μg/ml, Sigma) and propidium iodide (2.5 μg/ml, Sigma) for 5 min at 37° C. and analyzed by fluorescence microscopy.
These studies were performed to elucidate the role of Ang-2 role in the process of angiogenesis.

CAM = test: Angiogenesis in vivo, CAM model; set-up: species or system chicken; details: 72 h after treatment
Protocol: Fertilized chicken eggs (SPAFAS; Charles River Lab., Wilmington, Mass.) will be incubated at 37° C. at 55% humidity for 9 days. An artificial air sac will be created over a region containing small blood vessels in the CAM as described (Brooks et al., 1999). A small window will be cut in the shell after removing 3 ml of albumen. Filter disks (6 mm in diameter) will be coated with cortisone acetate in absolute ethanol (3 mg/mL). The CAM will be locally treated with filter disks saturated with a solution containing bFGF (50 ng/disk; R&D Systems, Minneapolis, Minn.) and VEGF121/rGel (at 1 or 10 nM), rGel (at 1 or 10 nM), or buffer (PBS). The filter will be placed on the CAM in a region with the lowest density of blood vessels, and in the vicinity, as reference, of a large vessel. Angiogenesis will be monitored by photography 3 days after treatment. Images will be captured using an Olympus stereomicroscope (SZ×12) and Spot™ Basic software (Diagnostic Instruments, Inc.). The relative vascular area will be determined by measuring the area taken up by blood vessels. […] The number of blood vessel branch points will be quantify by two researchers, and compared to the treatment controls (Brooks et al., 1999).
Ang-2 inhibits angiogenesis in vivo (CAM model). […] Vascular responses were assessed 72 h later.

Tie2 = Tie2 (Homo sapiens, UniProt Q02763); test: Tie2 phosphorylation, immunoprecipitation; type: cell-based; details: U-87 MG
Chain of Tie2 (Q02763 23-1124): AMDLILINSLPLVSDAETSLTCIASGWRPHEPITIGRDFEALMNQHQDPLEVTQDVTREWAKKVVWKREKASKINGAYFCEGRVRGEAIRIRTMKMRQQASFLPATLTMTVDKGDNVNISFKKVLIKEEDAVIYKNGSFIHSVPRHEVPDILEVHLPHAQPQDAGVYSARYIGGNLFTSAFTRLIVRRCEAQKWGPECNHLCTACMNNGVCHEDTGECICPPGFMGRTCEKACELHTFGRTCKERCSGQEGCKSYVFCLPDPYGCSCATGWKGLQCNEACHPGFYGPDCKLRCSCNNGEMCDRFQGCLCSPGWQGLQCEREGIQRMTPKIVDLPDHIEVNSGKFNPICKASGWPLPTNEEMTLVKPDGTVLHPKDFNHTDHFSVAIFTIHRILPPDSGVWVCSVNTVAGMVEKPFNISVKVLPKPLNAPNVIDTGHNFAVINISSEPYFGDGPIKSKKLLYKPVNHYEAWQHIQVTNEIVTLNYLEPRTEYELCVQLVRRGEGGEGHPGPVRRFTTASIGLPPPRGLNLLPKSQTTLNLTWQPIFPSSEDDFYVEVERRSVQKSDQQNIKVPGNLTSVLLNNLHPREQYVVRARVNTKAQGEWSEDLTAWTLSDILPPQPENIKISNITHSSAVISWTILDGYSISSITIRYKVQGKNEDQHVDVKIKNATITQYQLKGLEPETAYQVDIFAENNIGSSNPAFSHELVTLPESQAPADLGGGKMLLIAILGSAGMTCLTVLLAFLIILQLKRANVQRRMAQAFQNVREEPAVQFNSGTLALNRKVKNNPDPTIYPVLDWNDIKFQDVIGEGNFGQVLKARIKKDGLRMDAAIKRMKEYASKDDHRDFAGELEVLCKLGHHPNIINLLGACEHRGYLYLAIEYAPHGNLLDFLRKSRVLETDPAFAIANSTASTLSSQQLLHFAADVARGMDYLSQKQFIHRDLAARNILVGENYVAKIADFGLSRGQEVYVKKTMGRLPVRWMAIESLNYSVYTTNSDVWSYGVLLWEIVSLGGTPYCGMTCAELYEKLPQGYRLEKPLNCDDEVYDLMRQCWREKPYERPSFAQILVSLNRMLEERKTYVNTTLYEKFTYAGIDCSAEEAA
Protocol: To explore the regulation of Tie2 signaling by Angs in U-87 MG cells, Tie2 was immunoprecipitated from membrane fractions of U-87 MG cells treated with rAng1 (500 ng/ml) for 10 min, and phosphorylation of Tie2 was addressed using anti-phosphotyrosine antibody.

[3] = cited from earlier work

For `Nc1nc(=O)[nH]cc1F` [5-FC, 5-fluorocytosine], the IC50 (parental U251MG cells) was 3090 µg/mL (≈ 24 mM), the IC50 ([1]; Homo sapiens, U-251, 120 h, U251MG cells expressing hyCD, 5 days) was 12.4 µg/mL (≈ 0.0961 mM) and the “increased sensitivity of hyCD-expressing versus parental cells to 5-FC” value ([1]; U251MG) was “approximately 3 orders of magnitude”.

For `Cc1ccc(NC(=O)c2ccc(CN3CCN(C)CC3)cc2)cc1Nc1nccc(-c2cccnc2)n1` [Imatinib], the survival versus vehicle (U-87 MG xenograft) was “did not significantly improve the survival”.

In the case of `Clc1ccc(Nc2nnc(Cc3ccncc3)c3ccccc23)cc1` [PTK787], the survival versus vehicle (U-87 MG xenograft) is reported as “did not significantly improve the survival”.

With `[O]=[188Re](=[O])(=[O])[O-]` [^188ReO4, Rhenium-188 perrenate] the “tissues with uptake of 188ReO4” value [2] was “thyroid and stomach”.

With `[O-][Cl+3]([O-])([O-])O` [sodium perchlorate] the “inhibition of NIS activity” value (U251 cells) was “complete inhibition of NIS activity”.

With “HFLIIGFMRRALCGA [PEPCH1, anti-EGFRvIII peptide, FITC-labeled]” the “binding to EGFRvIII-expressing cells” value (EGFRvIII) was “specific binding”.

For “rhAng-2: recombinant angiopoietin 2 protein”, the “formation of vascular-like structures” value (HU-VEC-C) was “lost their ability to form vascular-like structures”, the “vascular response in CAM” value (CAM) was “dramatically decreased newly sprouting angiogenic vessels” and the “effect on Ang1-induced Tie2 phosphorylation” value (Tie2) was “Inhibition of Tie2 phosphorylation”.

B1: bakers' yeast CD: cytosine deaminase previously isolated from Saccharomyces cerevisiae (protein, UniProt Q12178 1-158, looked up)
Cytosine deaminase: MVTGGMASKWDQKGMDIAYEEAALGYKEGGVPIGGCLINNKDGSVLGRGHNMRFQKGSATLHGEISTLENCGRLEGKVYKDTTLYTTLSPCDMCTGAIIMYGIPRCVVGENVNFKSKGEKYLQTRGHEVVVVDDERCKKIMKQFIDERPQDWFEDIGE
In the case of B1, the “time activity is maintained in solution” value ([3]; 4° C., pH 5-9) is listed as “at least 48 hr” and the “time to lose half of activity” value ([3]; 37° C., crude preparation) is listed as 1 h.

Reference: patent US10080774B2, “Oncolytic adenovirus armed with therapeutic genes” (priority 2002, dated 2018)
